We go through one molecule from US20230143751A1, “Aromatic Compound And Use Thereof In Preparing Antineoplastic Drugs” (Shanghai Zheye Biotechnology Co. Ltd., priority 2020, published 2023).

The nature of series [1]: Preliminary safety test, 5-day escalating oral dosing in Balb/c mice. The class given is in vivo.
The test system of series [2] is MIA PaCa-2-derived xenograft tumor. As to the kind of experiment: Pharmacodynamic effect study of MIA PaCa-2-derived xenograft tumor model (test 11). The class given is in vivo, nude mice. The conditions noted are these: MIA PaCa-2 xenograft, 20 mg/kg i.g. QD×21 days. As to the method: Animal species and number: Balb/c Nude; 6 animals per group.
Test samples: Compound 3-2, and Compound TM-1.
Test groups: blank solvent control group;
Compound 3-2 (20 mg/kg, i.g., QD×21 days);
Compound TM-1 (20 mg/kg, i.g., QD×21 days).
Animal model establishment: MIA PaCa-2 tumor cells in logarithmic growth phase were cultured in vitro and collected, and inoculated subcutaneously into the right back of nude mice at a quantity of 5×10^6 cells/each. When the tumor volume reached 150-300 mm^3, the tumor-bearing nude mice were randomly grouped. Subsequently, the animals in each group were administered, and the day of the first administration was defined as day 1 of the test.
Administration frequency: once a day.
General state observation: observation time and frequency: once a day; observation indexes or contents: including but not limited to administration location, appearance and signs, general behavioral activities, mental status, death and other abnormal performance of the animals. The animals were euthanized at the end of the test.
Tumor volume calculation: V=½×long diameter×short diameter^2 (mm^3).

Series [3] is described as follows: Safety test for repeated administration for 14 days in SD rats. The class given is in vivo. To be noted: oral gavage once a day for 14 days, 50, 150, 400 mg/kg. How it is done:
Test samples: Compound 3-2, and Compound 3-6.
Animal species and number: SD rat; 6 animals per group (half male and half female).
Administration mode: oral administration by gavage.
Animal grouping and administration dose: vehicle blank group, Compound 3-2 group (50 mg/kg, 150 mg/kg, 400 mg/kg), Compound 3-6 group (50 mg/kg, 150 mg/kg, 400 mg/kg).
Administration frequency: once a day for 14 days.
General clinical observations were performed 2 times a day (once in the morning and once in the afternoon) during the test period. Death, morbidity, respiration, secretions, feces, and diet, drinking situation and so on were observed, and the changes in body weight of the rats during the administration period were recorded. The contents of detailed clinical observation included but were not limited to behavioral activity, skin, coat, eyes, ears, nose, abdomen, external genitalia, anus, extremities, feet, and respiration. The animals in each group were euthanized at the end of administration period, and all animals were dissected and subjected to gross observation.

Each structure is given as a SMILES string.

With `C=CC(=O)N1CCN(c2nc(=O)n(-c3c(C)ccnc3C(C)C)c3nc(-c4ccccc4C=C)c(Cl)cc23)[C@@H](C)C1` [Compound 3-2], the MTD at 5 days in series [1] (both sexes, mouse, in vivo, oral gavage, 5 days, initially suggested, read-out: maximum tolerated dose) was more than 800 mg/kg. The “water and food intake, activity and body weight during the administration period (in words)” value in series [1] (oral gavage once a day for 5 days, 200 to 800 mg/kg) was “no significant abnormality was showed”; in series [3], “no significant abnormality was showed”. Also, the “Tumor inhibition rate (%)” value in series [2] was “+++ (“+++” represents a tumor inhibition rate of >140%)”.
